Literature values as cited in patent publication US20050256112A1, “Combination of atypical antipsychotics and 5HT-1B receptor antagonists” (Pfizer Inc, priority 2004, published 2005).
One block for each molecule: values may come before it.

Tests used:
[1] = background statement
white blood cell counts = details: background statement
[2] = in some mammals; background statement

SMILES: Cc1nc2n(c(=O)c1CCN1CCC(c3noc4cc(F)ccc34)CC1)CCCC2 [risperidone, 3-[2-[4-(6-fluoro-1,2-benzisoxazol-3-yl)piperidino]ethyl]-2-methyl-6,7,8,9-tetrahydro-4H-pyrido-[1,2-a]pyrimidin-4-one]
weight gain (in words) [1]: minimal
effect on white blood cell count (white blood cell counts): remains unaffected

cataract formation [2]: cause cataract formation
SMILES: OCCOCCN1CCN(C2=Nc3ccccc3Sc3ccccc32)CC1 [Quetiapine, 5-[2-(4-dibenzo[b,f][1,4]thiazepin-11-yl-1-piperazinyl)ethyoxy]ethanol]

SMILES: Cc1cc2c(s1)Nc1ccccc1N=C2N1CCN(C)CC1 [Olanzapine, 2-methyl-4-(4-methyl-1-piperazinyl)-10H-thieno [2,3-b][1,5] benzodiazepine]
weight gain ([1]; in some cases): up to 1 pound per week
